The numbers were not newly measured in the PKSmart pharmacokinetics tables (Seal et al. 2025), which cites them from elsewhere.

Data set [1] in a line: Lombardo, Berellini, Obach 2018, Drug Metab Dispos 46:1466, doi 10.1124/dmd.118.082966. The following applies: human; for MRT / Vd / clearance / half-life: in vivo, iv.
Data set [2] can be described thus: Lombardo et al. 2013, J Clin Pharmacol 53:178, doi 10.1177/0091270012440282. The following applies: for Vd / clearance: in vivo, iv; for fraction unbound: plasma.

What is called MRT is the average time that molecules of a dose stay in the body. Usually Vd stands for the apparent volume that relates the amount in the body to the concentration in plasma or blood. By clearance is commonly meant the rate of elimination divided by the concentration. What is called half-life is how long it takes for the measured level to halve. Usually fraction unbound stands for the share of the substance not bound to proteins or other matrix. In the case of `C#C[C@]1(O)CC[C@H]2[C@@H]3CCc4cc(OS(=O)(=O)O)ccc4[C@H]3CC[C@@]21C`, in data set [1], the MRT was 8.2 h, the Vd is 2.3 L/kg, the clearance is 4.7 mL/min/kg and the half-life was 8.4 h. Also, in data set [1] (plasma), the fraction unbound was 0.011. For the same compound, in data set [2] (monkey), the Vd is 21 L/kg and the clearance was 39 mL/min/kg.
On to `COc1cc2c(c(OC)c1OC)-c1ccc(OC)c(=O)cc1[C@@H](NC(C)=O)CC2`, for which, in data set [1], the MRT is 49 h, the Vd is 6.1 L/kg, the clearance was 2.1 mL/min/kg and the half-life is 58 h. For the same compound, in data set [2] (rat), the Vd is 31.4 L/kg and the clearance is 34.3 mL/min/kg.
Take `O=C(O)CCCCO/N=C(/c1cccnc1)c1cccc(C(F)(F)F)c1`: in data set [2] (rat), the Vd is 0.78 L/kg, the clearance is 2 mL/min/kg and the fraction unbound was 0.05.
Turning to `CN[C@@H]1C[C@H]2O[C@@](C)([C@@H]1OC)n1c3ccccc3c3c4c(c5c6ccccc6n2c5c31)C(=O)N[C@@H]4O`, in data set [2] (dog), the Vd was 6.09 L/kg, the clearance was 10.2 mL/min/kg and the fraction unbound is 0.0074. In data set [2] (rat), the Vd was 16.7 L/kg and the clearance is 65 mL/min/kg.
As for `O=C(c1ccccc1)c1ccc2n1CCC2C(=O)O` (centres undefined), the Vd in data set [2] (dog) is 0.33 L/kg. The clearance in data set [2] (dog) is 1.25 mL/min/kg; in data set [2] (rat), 3.6 mL/min/kg.
For the compound `CC(C)=CCN1CC[C@@]2(C)c3cc(O)ccc3C[C@@H]1[C@@H]2C`, in data set [2] (monkey), the Vd was 9.62 L/kg and the clearance was 56.6 mL/min/kg.
For `CN1C2CCC[C@@H]1CC(NC(=O)c1nn(C)c3ccccc13)C2` (some centres undefined), in data set [2] (rat), the Vd is 16.7 L/kg and the clearance was 824 mL/min/kg.
Regarding `CONC(C(=O)N=C1C(=O)N2C(C(=O)[O-])=C(C[N+]34CCC(C(N)=O)(CC3)CC4)CS[C@H]12)c1nsc(N)n1` (some centres undefined), in data set [2] (dog), the Vd was 0.23 L/kg and the clearance is 3.3 mL/min/kg.
`NC(=O)C(c1ccccc1)(c1ccccc1)[C@@H]1CCN(CCc2ccc3c(c2)CCO3)C1`: in data set [2] (dog), the Vd was 6.8 L/kg and the clearance was 39 mL/min/kg. In addition, in data set [2] (rat), the Vd was 7 L/kg and the clearance is 59 mL/min/kg.
As to `COC(=O)Nc1nc2ccc(C(=O)c3ccccc3)cc2[nH]1`, in data set [2] (rat), the Vd is 2.6 L/kg and the clearance was 9.8 mL/min/kg.
As for `CCC1=NC(=O)C2CSSCC/C=C\[C@H](CC(=O)NC(C(C)C)C(=O)N2)OC(=O)C(C(C)C)NC1=O` (some centres undefined), in data set [2] (monkey), the Vd is 4.95 L/kg and the clearance was 27.9 mL/min/kg. Besides, in data set [2] (rat), the Vd was 63.8 L/kg and the clearance was 625 mL/min/kg.
For the compound `C[C@@H](O)C1C(=O)N2C(C(=O)O)=C(SCC/N=C/N)C[C@H]12` (some centres undefined), the clearance in data set [2] (dog) was 4.3 mL/min/kg; in data set [2] (monkey), 5.7 mL/min/kg; in data set [2] (rat) it was 14.5 mL/min/kg. The free fraction (fraction unbound) was 1 in data set [2] (dog), 0.975 in data set [2] (monkey) and 1 in data set [2] (rat).
With `COc1ccccc1Oc1c(NS(=O)(=O)c2ccc(C)cn2)nc(-c2ccnc(-c3nn[nH]n3)c2)nc1OCCO`, the Vd in data set [2] (dog) is 0.11 L/kg; in data set [2] (monkey), 0.36 L/kg; in data set [2] (rat), 0.32 L/kg. Further, the clearance in data set [2] (dog) is 2.89 mL/min/kg; in data set [2] (monkey), 19 mL/min/kg; in data set [2] (rat) it was 11.7 mL/min/kg.
`CC(NC(=O)N(CCCl)N=O)C(N)=O` (centres undefined): the clearance in data set [2] (dog) is 17.6 mL/min/kg.
As for `NC(N)=Nc1nc(CSCCC(N)=NS(N)(=O)=O)cs1`, in data set [2] (dog), the Vd is 0.79 L/kg, the clearance is 8.6 mL/min/kg and the fraction unbound is 0.72. In data set [2] (monkey), the Vd is 2.1 L/kg, the clearance was 15 mL/min/kg and the fraction unbound was 0.13. Moreover, in data set [2] (rat), the Vd was 0.8 L/kg, the clearance is 22 mL/min/kg and the fraction unbound was 0.47.
As to `COc1ccc2nc([S+](O)Cc3ncc(C)c(OC)c3C)[n-]c2c1` (centres undefined), in data set [2] (rat), the Vd is 0.44 L/kg, the clearance was 53 mL/min/kg and the fraction unbound was 0.19.
In the case of `O=C(OC1CC2CC3C[C@@H](C1)N2CC3=O)c1c[nH]c2ccccc12` (some centres undefined), the clearance in data set [2] (dog) is 27 mL/min/kg; in data set [2] (monkey), 77 mL/min/kg; in data set [2] (rat), 72 mL/min/kg. In addition, the fraction unbound in data set [2] (dog) and in data set [2] (monkey) was 0.5 in each case. Also, the Vd in data set [2] (rat) was 26 L/kg.
`COc1ccc(-c2nc3ccc(C4=NNC(=O)CC4C)cc3[nH]2)cc1` (centres undefined): the Vd in data set [2] (rat) is 3.5 L/kg.
As to `CCC#CC[C@H](C)[C@H](O)C#C[C@@H]1[C@H]2C/C(=C/COCCCC(=O)O)C[C@H]2C[C@H]1O`, in data set [2] (monkey), the Vd is 1.6 L/kg and the clearance is 63.1 mL/min/kg. Also, in data set [2] (rat), the Vd was 1.5 L/kg and the clearance is 170 mL/min/kg.
On to `[H]/N=C(\N)c1ccc(OCCCCCOc2ccc(/C(N)=N/[H])cc2)cc1`, for which, in data set [2] (dog), the Vd is 6.6 L/kg, the clearance is 60.6 mL/min/kg and the fraction unbound is 0.266. For the same compound, in data set [2] (rat), the Vd is 10.1 L/kg, the clearance was 112 mL/min/kg and the fraction unbound was 0.4.
On to `CC1(C)SC2C(NC(=O)C(NC(=O)N3CCNC3=O)c3ccccc3)C(=O)N2C1C(=O)O` (centres undefined), for which, in data set [2] (dog), the Vd is 0.27 L/kg and the clearance was 2.8 mL/min/kg.
As for `OC(CNCC(O)C1CCc2cc(F)ccc2O1)C1CCc2cc(F)ccc2O1` (centres undefined), in data set [2] (rat), the Vd is 6.2 L/kg, the clearance is 49 mL/min/kg and the fraction unbound was 0.015.
Consider `[H]/N=C(\N)N1CCC[C@@H](CNC(=O)CC(NS(=O)(=O)c2ccc3ccccc3c2)C(=O)N(CC(=O)O)C2CC2)C1` (some centres undefined), for which the Vd is 0.64 L/kg in data set [2] (dog), 0.32 L/kg in data set [2] (monkey) and 0.6 L/kg in data set [2] (rat). The fraction unbound in data set [2] (dog) was 0.52; in data set [2] (rat), 0.33.
On to `C#CCN(C)[C@H](C)Cc1ccccc1`, for which, in data set [2] (dog), the Vd was 9.46 L/kg and the clearance was 160 mL/min/kg. In addition, the fraction unbound in data set [2] (rat) was 0.31.
Take `Cn1nnc2c(C(N)=O)ncn2c1=O`: in data set [2] (rat), the Vd was 0.92 L/kg and the clearance was 9.8 mL/min/kg.
In the case of `C[C@@H](O)C1C(=O)N2C(C(=O)O)=C(S[C@@H]3CN[C@H](CNS(N)(=O)=O)C3)[C@H](C)[C@H]12` (some centres undefined), the clearance in data set [2] (dog) is 4.7 mL/min/kg; in data set [2] (monkey) it was 7.7 mL/min/kg; in data set [2] (rat), 35.7 mL/min/kg. For the same compound, the fraction unbound was 0.9 in data set [2] (dog), 0.94 in data set [2] (monkey) and 0.65 in data set [2] (rat).
For `CCN[C@@H]1C[C@H](N)[C@@H](OC2OC(CN)=CCC2N)[C@H](O)[C@H]1O[C@H]1OC[C@](C)(O)[C@H](NC)[C@H]1O` (some centres undefined), in data set [2] (dog), the Vd is 0.34 L/kg and the clearance is 3.4 mL/min/kg.
As to `Cc1cccc([C@H](C)c2cnc[nH]2)c1C`, in data set [2] (rat), the Vd was 3.24 L/kg and the clearance was 59.4 mL/min/kg.
`Cc1nnc(C(C)C)n1C1C[C@H]2CC[C@@H](C1)N2CC[C@H](NC(=O)C1CCC(F)(F)CC1)c1ccccc1` (some centres undefined): in data set [2] (dog), the Vd was 2.32 L/kg, the clearance is 21 mL/min/kg and the fraction unbound was 0.36. In addition, in data set [2] (rat), the Vd was 2.53 L/kg, the clearance was 74 mL/min/kg and the fraction unbound was 0.49.
For `CCCc1nn(C)c2c(=O)nc(-c3cc(S(=O)(=O)N4CCN(C)CC4)ccc3OCC)[nH]c12`, in data set [2] (dog), the Vd was 5.2 L/kg, the clearance is 12 mL/min/kg and the fraction unbound was 0.14. Also, in data set [2] (rat), the Vd was 1.1 L/kg and the clearance is 48 mL/min/kg.
With `CC1C(=O)O[C@H]2[C@H](O)[C@@]34[C@H]5C[C@@H](C(C)(C)C)[C@@]36C(O)C(=O)O[C@H]6O[C@@]4(C(=O)O5)[C@@]12O` (some centres undefined), in data set [2] (rat), the Vd was 3.5 L/kg and the clearance was 60 mL/min/kg.
Consider `CC(C)(N)CC(=O)NC1CCc2ccccc2N(Cc2ccc(-c3ccccc3-c3nn[nH]n3)cc2)C1=O` (centres undefined), for which, in data set [2] (dog), the Vd is 0.34 L/kg, the clearance is 19.3 mL/min/kg and the fraction unbound was 0.86. In data set [2] (monkey), the Vd is 0.16 L/kg, the clearance is 5.7 mL/min/kg and the fraction unbound is 0.06. In data set [2] (rat), the Vd is 0.15 L/kg, the clearance was 2.7 mL/min/kg and the fraction unbound is 0.02.
